Results as given in US20100324132A1, “METHODS AND COMPOSITIONS FOR PROMOTING WOUND HEALING” (priority 2005, published 2010).

Legend:
[1] = system: surface ulcers with multiple resistant pathogenic species; assay: Bath treatment of ulcerated Koi; type: in vivo, Koi (Cyprinus carpio); conditions: antibiotics injected directly into the fish before the bath treatment
Protocol: An immersion treatment of the infected animals of 5 to 10 minutes on alternate days over a six day period promoted healing of most ulcers.
All of the treated fish had previously been given injections of Azactam, Baytril, and Amikacin. […] Among the species of bacteria found in the ulcers of the fish were representatives of the genera Aeromonas, Proteus, Klebsiella, Staphylococcus, Streptococcus, Enterobacter and Flavobacterium.
All fish were housed in a communal “hospital tank” before treatment and moved to an isolation tank after each treatment. The temperature of the bath was adjusted to that of the hospital tank temperature, 24 C, and adequate aeration was supplied to the treatment tank. Eight of the fish had external ulcers of various dimensions. Two of the fish were dropsied.

[2] = system: Staphylococcus aureus; assay: Antibiotic resistance profile, disc diffusion; note: key: R = resistant; I = intermediate; S = sensitive; type: cell-based; conditions: S. aureus isolated from burn patients
[3] = system: Pseudomonas aeruginosa; assay: Antibiotic resistance profile, disc diffusion; note: key: R = resistant; I = intermediate; S = sensitive; type: cell-based; conditions: P. aeruginosa isolated from burn patients
[4] = system: Enterococcus faecalis; assay: Antibiotic resistance profile, disc diffusion; note: key: R = resistant; I = intermediate; S = sensitive; type: cell-based; conditions: E. faecalis isolated from burn patients
[5] = system: Enterococcus faecalis; assay: MIC/MBC and checkerboard of EDTA-Tris and neomycin; type: cell-based; conditions: in 50 mM Tris
Protocol: (§1) This example describes a method for determining the FIC values set forth in Example 4. […] Agents and Chem. pp. 210-217 (1967); and Sparks et al., Vet. Res. Comm. 18:241-249 (1994). Each of the foregoing publications are incorporated herein by reference.
(§2) Then 0.05 ml of an 18-hour old culture of a test organism, containing […] colony-forming units (CFU) ml, were added to each well. Controls for the culture and media were included in each plate. Plates were covered and incubated at 37° C. for 18-24 hours.
(§3) To generate isobolograms, FICs of the two test solutions were plotted individually on the x-axis and y-axis to determine the effect of combining the two test solutions on bacterial growth. A line that curves away from the zero point and the coordinates indicated antagonism. […] Goodman and Gilman, pp. 1085-1086 (Macmillan Publishing Co., New York, 1985); Sabath, L. D., Antimicrob. Agents and Chem. pp. 210-217 (1967) and incorporated herein by reference in their entireties.
(§4) A numerical score or Fractional Inhibitory Concentration (FIC) index was determined. The FIC index is equal to the sum of the values of FIC for the individual drugs:
(§5) An FIC index greater than 1.0 indicated an antagonistic interaction, an FIC index of 1.0 indicated addition, and an FIC index of less than or equal to 0.5 indicated synergism between the two test agents.
(§6) The organisms of this study were isolated from human burn patients. They included strains of methicillin resistant Staphylococcus aureus, and vancomycin resistant strains of Pseudomonas aeruginosa and Enterococcus faecalis. The bacterial isolates were propagated in or on Brain Heart Infusion broth (BHI), Mueller-Hinton Broth (MHB), blood agar (BA), Mueller-Hinton agar (MBA), enterococcus agar (EA), or 2× nutrient agar (2× NA).
(§7) 307 (pub: Am. Soc. Microbiol. Williams and Wilkins, Baltimore 1970), incorporated herein by reference in its entirety.

[6] = system: Pseudomonas aeruginosa; assay: MIC/MBC and checkerboard of EDTA-Tris and neomycin; type: cell-based; conditions: in 50 mM Tris
Protocol: as §1, §2, §3, §4, §5, §6, §7

[7] = system: Aeromonas caviae; assay: MIC and FIC of EDTA and neomycin, Aeromonas isolated from ulcerated fish; type: cell-based; conditions: A. caviae
Protocol: (§8) This example describes a method for determining the FIC values set forth in Example 4. […] Agents and Chem. pp. 210-217 (1967); and Sparks et al., Vet. Res. Comm. 18:241-249 (1994). Each of the foregoing publications are incorporated herein by reference. […] Then 0.05 ml of an 18-hour old culture of a test organism, containing […] colony-forming units (CFU) ml, were added to each well. Controls for the culture and media were included in each plate. Plates were covered and incubated at 37° C. for 18-24 hours. A numerical score or Fractional Inhibitory Concentration (FIC) index was determined. The FIC index is equal to the sum of the values of FIC for the individual drugs: An FIC index greater than 1.0 indicated an antagonistic interaction, an FIC index of 1.0 indicated addition, and an FIC index of less than or equal to 0.5 indicated synergism between the two test agents.

[8] = system: Aeromonas sobria; assay: as above; type: cell-based; conditions: A. sobria
Protocol: as §8

[9] = system: Candida albicans; assay: MIC/MBC of cocamidopropyl betaine, Tris-EDTA and their combination, dog isolates; type: cell-based
Protocol: (§9) The formulation was tested against Pseudomonas aeruginosa, Proteus mirabilis, Escherichia coli, Staphylococcus intermedius, Malessezia pachydermatis, and Candida albicans.

[10] = system: Escherichia coli; assay: as above; type: cell-based
Protocol: as §9

[11] = system: Malassezia pachydermatis; assay: as above; type: cell-based
Protocol: as §9

[12] = system: Proteus mirabilis; assay: as above; type: cell-based
Protocol: as §9

[13] = system: Pseudomonas aeruginosa; assay: as above; type: cell-based
Protocol: as §9

[14] = system: Staphylococcus intermedius; assay: as above; type: cell-based
Protocol: as §9

[15] = system: Pseudomonas aeruginosa; assay: MIC/MBC of Tris, EDTA, cocamidopropyl betaine and silver combinations, human burn isolates; type: cell-based; conditions: P. aeruginosa isolated from a human burn patient; x = multiple of the stock solution
[16] = system: Staphylococcus aureus; assay: as above; type: cell-based; conditions: S. aureus isolated from a human burn patient; x = multiple of the stock solution
[17] = system: Staphylococcus aureus; assay: MIC/MBC and checkerboard of EDTA-Tris and neomycin; type: cell-based; conditions: in 50 mM Tris
Protocol: as §1, §2, §3, §4, §5, §6, §7

[18] = system: Aeromonas hydrophila; assay: MIC and FIC of EDTA and neomycin, Aeromonas isolated from ulcerated fish; type: cell-based; conditions: A. hydrophila
Protocol: as §8

[19] = C. albicans from dogs, x = multiple of the 1x stock solution
[20] = E. coli isolated from a dog with otitis externa, x = multiple of the 1x stock solution
[21] = M. pachydermatis from dogs, x = multiple of the 1x stock solution
[22] = P. mirabilis from dogs, x = multiple of the 1x stock solution
[23] = P. aeruginosa from dogs with otitis externa and pyoderma, x = multiple of the 1x stock solution
[24] = S. intermedius from dogs, x = multiple of the 1x stock solution

C[C@H]1[C@H](NC(=O)/C(=N\OC(C)(C)C(=O)O)c2csc(N)n2)C(=O)N1S(=O)(=O)O [Azactam]
Healing of ulcers [1]: failed to heal visible ulcers

CC[C@H]1OC(=O)[C@H](C)[C@@H](O[C@H]2C[C@@](C)(OC)[C@@H](O)[C@H](C)O2)[C@H](C)[C@@H](O[C@@H]2O[C@H](C)C[C@H](N(C)C)[C@H]2O)[C@](C)(O)C[C@@H](C)C(=O)[C@H](C)[C@@H](O)[C@]1(C)O [E, erythromycin]
Antibiotic resistance profile [2]: R
Antibiotic resistance profile [3]: R
Antibiotic resistance profile [4]: R

CC1(C)S[C@@H]2[C@H](NC(=O)[C@H](N)c3ccccc3)C(=O)N2[C@H]1C(=O)O [Am, ampicillin]
Antibiotic resistance profile [2]: R^B
Antibiotic resistance profile [3]: R
Antibiotic resistance profile [4]: S

CCn1cc(C(=O)O)c(=O)c2ccc(C)nc21 [NA, nalidixic acid]
Antibiotic resistance profile [2]: R
Antibiotic resistance profile [3]: R
Antibiotic resistance profile [4]: R

O=C(N[C@H](CO)[C@H](O)c1ccc([N+](=O)[O-])cc1)C(Cl)Cl [C, chloramphenicol]
Antibiotic resistance profile [2]: I
Antibiotic resistance profile [3]: R
Antibiotic resistance profile [4]: R

Cc1noc(NS(=O)(=O)c2ccc(N)cc2)c1C [G, sulfisoxazole]
Antibiotic resistance profile [2]: S
Antibiotic resistance profile [3]: R
Antibiotic resistance profile [4]: R

oxacillin/methicillin
Antibiotic resistance profile [2]: R
Antibiotic resistance profile [3]: R
Antibiotic resistance profile [4]: R

NC[C@H]1O[C@H](O[C@H]2[C@H](O)[C@@H](O[C@H]3O[C@H](CO)[C@@H](O)[C@H](N)[C@H]3O)[C@H](N)C[C@@H]2N)[C@H](O)[C@@H](O)[C@@H]1O [K, kanamycin]
Antibiotic resistance profile [2]: R
Antibiotic resistance profile [3]: R
Antibiotic resistance profile [4]: R

O=C(O)CN(CCN(CC(=O)O)CC(=O)O)CC(=O)O [EDTA, ethylenediaminetetraacetate]
MBC, individually administered [5]: 250 mM
MBC, individually administered [6]: 250 mM
MIC, EDTA in 50 mM Tris alone [7]: <0.49
MIC, EDTA in 50 mM Tris alone [8]: 15.6

[H]/N=C(/N)N[C@H]1[C@H](O)[C@@H](O)[C@H](O[C@@H]2O[C@@H](C)[C@](O)(C=O)[C@H]2O[C@@H]2O[C@@H](CO)[C@H](O)[C@@H](O)[C@@H]2NC)[C@@H](N/C(N)=N\[H])[C@@H]1O [S, streptomycin]
Antibiotic resistance profile [2]: S
Antibiotic resistance profile [3]: R
Antibiotic resistance profile [4]: R

CCN1CCN(c2cc3c(cc2F)c(=O)c(C(=O)O)cn3C2CC2)CC1 [Baytril]
Healing of ulcers [1]: failed to heal visible ulcers

cocamidopropyl betaine
MBC ([9]; C. albicans): 0.3% of stock solution
MIC ([9]; C. albicans): 0.1% of stock solution
MBC [9, 19]: 0.003x
MIC [9, 19]: 0.001x
MBC ([10]; E. coli): 50% of stock solution
MIC ([10]; E. coli): 25% of stock solution
MBC [10, 20]: 0.5x
MIC [10, 20]: 0.25x
MBC ([11]; M. pachydermatis): 0.3% of stock solution
MIC ([11]; M. pachydermatis): 0.1% of stock solution
MBC [11, 21]: 0.003x
MIC [11, 21]: 0.001x
MBC ([12]; P. mirabilis): 50% of stock solution
MIC ([12]; P. mirabilis): 25% of stock solution
MBC [12, 22]: 0.5x
MIC [12, 22]: 0.25x
MBC ([13]; P. aeruginosa): 50% of stock solution
MIC ([13]; P. aeruginosa): 25% of stock solution
MBC [13, 23]: 0.5x
MIC [13, 23]: 0.25x
MBC ([14]; S. intermedius): 0.1% of stock solution
MIC ([14]; S. intermedius): 0.1% of stock solution
MBC [14, 24]: 0.001x
MIC [14, 24]: 0.001x
MBC [15]: 0.5x
MIC [15]: 0.25x
MBC [16]: 0.001x
MIC [16]: 0.001x

CN[C@H](CC(C)C)C(=O)N[C@H]1C(=O)N[C@@H](CC(N)=O)C(=O)N[C@H]2C(=O)N[C@H]3C(=O)N[C@H](C(=O)N[C@H](C(=O)O)c4cc(O)cc(O)c4-c4cc3ccc4O)[C@H](O)c3ccc(c(Cl)c3)Oc3cc2cc(c3O[C@@H]2O[C@H](CO)[C@@H](O)[C@H](O)[C@H]2O[C@H]2C[C@](C)(N)[C@H](O)[C@H](C)O2)Oc2ccc(cc2Cl)[C@H]1O [Va, vancomycin]
Antibiotic resistance profile [2]: S
Antibiotic resistance profile [3]: R
Antibiotic resistance profile [4]: R

neomycin
Antibiotic resistance profile [2]: R
Antibiotic resistance profile [3]: R
Antibiotic resistance profile [4]: R
MBC, individually administered [5]: 25000 µg/mL
MBC, individually administered [6]: 5000 µg/mL
MBC, individually administered [17]: 3130 µg/mL
MIC, neomycin alone [7]: 12.5 µg/mL
MIC, neomycin alone [18]: 200 µg/mL
MIC, neomycin alone [8]: 12.5 µg/mL

gentamicin [GM]
Antibiotic resistance profile [2]: S
Antibiotic resistance profile [3]: I
Antibiotic resistance profile [4]: R

CN(C)[C@@H]1C(O)=C(C(N)=O)C(=O)[C@@]2(O)C(O)=C3C(=O)c4c(O)cccc4[C@@](C)(O)[C@H]3C[C@@H]12 [Te, tetracycline]
Antibiotic resistance profile [2]: S
Antibiotic resistance profile [3]: R
Antibiotic resistance profile [4]: R

NCC[C@H](O)C(=O)N[C@@H]1C[C@H](N)[C@@H](O[C@H]2O[C@H](CN)[C@@H](O)[C@H](O)[C@H]2O)[C@H](O)[C@H]1O[C@H]1O[C@H](CO)[C@@H](O)[C@H](N)[C@H]1O [Amikacin]
Healing of ulcers [1]: failed to heal visible ulcers
